Results on 1 compound are retold here after patent publication US20070225242A1, “Method and composition for treating and preventing tumor metastasis in vivo” (The Board of Trustees of the Leland Stanford Junior …, priority 2005, published 2007).

Molecules are shown by their SMILES.

The subject of one assay is FAK. Kind of assay: FAK phosphorylation (phospho-FAK immunoblot). It counts as cell-based. The following applies: cells expressing LOX shRNA transfected with mature LOX. The source says:
Acquisition of motility is required before cells can migrate and invade. Invasive cell migration is a multi-step process^17 that commences with pseudopod protrusion at the leading edge driven by actin polymerization, resulting in focal adhesion formation and the activation of integrin and focal adhesion kinase (FAK). […] LOX protein expression extended along hairlike fibers protruding from the cell surface into the collagen matrix. […] Remodeling of the actin cytoskeleton with increased formation of stress fibers and focal adhesion in MDA231 control cells particularly in hypoxia was observed, which were not seen in cells expressing LOX shRNA.
A role for fibronectin (FN) was sought, because it was strongly associated with LOX expression in the breast cancer microarray data set that was analyzed (data not shown), is reported to regulate invasion, bind to integrins and interact with LOX, and is hypoxia induced. […] FAK phosphorylation could be induced in the cells expressing LOX shRNA by transfection with mature LOX (but not catalytically dead LOX), confirming a role for LOX in FAK phosphorylation. […]
Methods were performed as previously described. […] LOX was analyzed by using a rabbit polyclonal antibody raised against a synthetic peptide of human LOX (EDTSCDYGYHRRFA (SEQ ID NO:1); Open Biosystems). […] Quantification was performed with ImageQuant software.

Assay [1] concerns MDA231 human breast cancer cells. Kind of assay: Pulmonary foci after i.v. MDA231 cells with daily conditioned media injections. Particulars: i.v. tumor cells with daily CM injections. The format is in vivo, mice. From the text: To determine if the effect of increased circulating LOX levels on the growth of tumor cell foci at metastatic sites was independent of the initial steps of metastasis from a primary tumor (Steeg (2006) Nat. Med. 12:895-904), we intravenously injected MDA231 human breast cancer cells that expressed either LOX-targeting shRNA or a scrambled control sequence (Wt). We also provided circulating LOX by daily intraperitoneal injections of conditioned media (CM) derived from Wt or LOX shRNA cells exposed to hypoxic (H) or normoxic (N) conditions for 24 hours in vitro. […] CM from aerobic LOX shRNA cells had the lowest LOX activity (FIG. 19B).
Local secretion of LOX by Wt tumor cells could sustain growth of Wt foci in the absence of exogenous circulating LOX, although larger foci were present when circulating LOX from hypoxic Wt CM was supplied (FIG. 19F-G). Since circulating LOX levels are highest in mice prior to metastasis formation from a primary tumor (FIG. 19A), we injected CM daily for 2 weeks prior to i.v. tumor cell injection (FIG. 19B).
Conditioned media (CM) consisted of serum-free Modified Eagle's Medium cultured on MDA231 LOX shRNA or control cells incubated in normoxia (N; 21% O2) or hypoxia (H; 2% O2) for 24 h. CM was passed through a 0.22-μm filter and 300-μl were injected intraperitoneally daily into mice (Kaplan (2005), supra). […]

Another assay has as its system MMP-2. Kind of assay: MMP gelatin zymography of RAW macrophages incubated with conditioned media. Particulars: BMDCs incubated 24 h with CM from hypoxic Wt cells. The format is cell-based. The protocol: We examined changes in BMDC MMP activity induced by CM (FIG. 21C). MMP-9 activity was not affected by LOX or FN alone, but was elevated in CM supplemented with FN regardless of LOX status. This is consistent with our finding that FN has a stronger influence than LOX on BMDC migration.
Gelatin enzymography was performed to assess MMP activity as described. Protein concentrations were quantified to ensure equal loading.

Assay [2] relates to fibronectin null mouse embryonic fibroblasts. Put plainly: In vitro invasion of fibronectin null cells. The format is cell-based. As for the experimental part:
FIG. 8 is a graph (A) showing fibronectin null mouse embryonic fibroblasts subjected to in vitro invasion assays; untreated invasion was compared with that of cells transfected with LOX antisense oligos (Antisense) or incubated with BAPN, and (B) Adhesion of SiHa cells expressing DSRED to matrix was assessed over time.
A role for fibronectin (FN) was sought, because it was strongly associated with LOX expression in the breast cancer microarray data set that was analyzed (data not shown), is reported to regulate invasion, bind to integrins and interact with LOX, and is hypoxia induced. […] FAK phosphorylation could be induced in the cells expressing LOX shRNA by transfection with mature LOX (but not catalytically dead LOX), confirming a role for LOX in FAK phosphorylation. […] It is proposed here that this is because LOX increases fibrillar collagen, which is a ligand for b1 integrin. Other integrin pathways have been reported to mediate hypoxia-induced invasion.

Assay [3] relates to Caski human cervical cancer cells. Kind of assay: Tail vein metastasis and survival assay, Caski cells. It counts as in vivo, mice. As for the experimental part:
Described briefly below are the results of experiments conducted with several different cell types. • 1. PANCREATIC: Panc-1 human pancreatic cells (see ATCC CRL-1469) expressing LOX shRNA were subjected to a tail vein metastasis assay comparing their metastatic growth to that of control Panc-1 cells. […] CERVICAL: Tail vein metastasis assays were performed using Caski human cervical cancer cells (See CRL-1550). After 4 weeks of growth, half the mice were treated with BAPN. […] COLON: HCT116 human colon cancer cells (see CCL-247) were transfected to express LOX shRNA and grown as subcutaneous tumors in nude mice, while comparing their growth with that of control cells.
Caski Cervical cancer cells were injected into the tail vein of immune deficient mice and analyzed for survival differences. Metastases were allowed to form for two weeks before animals were treated with 100 mg/kg BAPN daily for up to 40 days. FIG. 14 is a Kaplan-Meyer plot showing survival of the animals. […] Upon discontinuation of BAPN treatment, animals started to die.

In the case of `N#CCCN` [BAPN, β-aminoproprionitrile], the “FAK phosphorylation induced by transfection with mature LOX” value in the assay on FAK was “could be prevented”. Besides, the pulmonary foci formation entry in assay [1] was “diminished foci formation”. For the same compound, in the assay on MMP-2, the MMP-2 activity entry is “reduced”. In assay [2], the “invasion of FN-null cells” value is on record as “strongly inhibited invasion (similarly to BAPN addition)”. Besides, in assay [3] (100 mg/kg BAPN daily for up to 40 days, started two weeks after injection), the animals survived is on record as 100%. In addition, in assay [3] (BAPN administered after 90 days to animals that already harbored metastases), the “disease course on renewed BAPN treatment” value was “became stabilized”. Moreover, the “lung foci (micro-metastases)” value in assay [3] (BAPN after 4 weeks of growth) was “eliminated formation of any lung foci”.
